These results are taken from patent publication US8658618B2, “Methods for preventing or reducing neurotoxicity associated with administering DPD inhibitors in combination with 5-FU and 5-FU prodrugs” (Adherex Technologies, Inc., priority 2009, dated 2014).

Molecules are shown by their SMILES. Like-named read-outs stand apart in the source and are kept apart here.

The test system of one series is dogs. To be noted: cited from earlier work.
The conditions of series [1]: cited from earlier work; for elimination half-life of 5-FU: Phase I.
In series [2] the test system is mice, monkeys, cats, and dogs. To be noted: in vivo; cited from earlier work.
Series [3] has as its system tumor. To be noted: tumor-bearing rats and tissue culture; cited from earlier work.
Series [4] has as its system cancer patients. To be noted: cited from earlier work.
Series [5] addresses T1, DPD (Rattus norvegicus, UniProt O89000).
T1 construct: from tissue; host or cells: rat brain, liver, spleen, intestinal mucosa, lung (in vivo dosing)
T1 sequence (O89000 1-1025): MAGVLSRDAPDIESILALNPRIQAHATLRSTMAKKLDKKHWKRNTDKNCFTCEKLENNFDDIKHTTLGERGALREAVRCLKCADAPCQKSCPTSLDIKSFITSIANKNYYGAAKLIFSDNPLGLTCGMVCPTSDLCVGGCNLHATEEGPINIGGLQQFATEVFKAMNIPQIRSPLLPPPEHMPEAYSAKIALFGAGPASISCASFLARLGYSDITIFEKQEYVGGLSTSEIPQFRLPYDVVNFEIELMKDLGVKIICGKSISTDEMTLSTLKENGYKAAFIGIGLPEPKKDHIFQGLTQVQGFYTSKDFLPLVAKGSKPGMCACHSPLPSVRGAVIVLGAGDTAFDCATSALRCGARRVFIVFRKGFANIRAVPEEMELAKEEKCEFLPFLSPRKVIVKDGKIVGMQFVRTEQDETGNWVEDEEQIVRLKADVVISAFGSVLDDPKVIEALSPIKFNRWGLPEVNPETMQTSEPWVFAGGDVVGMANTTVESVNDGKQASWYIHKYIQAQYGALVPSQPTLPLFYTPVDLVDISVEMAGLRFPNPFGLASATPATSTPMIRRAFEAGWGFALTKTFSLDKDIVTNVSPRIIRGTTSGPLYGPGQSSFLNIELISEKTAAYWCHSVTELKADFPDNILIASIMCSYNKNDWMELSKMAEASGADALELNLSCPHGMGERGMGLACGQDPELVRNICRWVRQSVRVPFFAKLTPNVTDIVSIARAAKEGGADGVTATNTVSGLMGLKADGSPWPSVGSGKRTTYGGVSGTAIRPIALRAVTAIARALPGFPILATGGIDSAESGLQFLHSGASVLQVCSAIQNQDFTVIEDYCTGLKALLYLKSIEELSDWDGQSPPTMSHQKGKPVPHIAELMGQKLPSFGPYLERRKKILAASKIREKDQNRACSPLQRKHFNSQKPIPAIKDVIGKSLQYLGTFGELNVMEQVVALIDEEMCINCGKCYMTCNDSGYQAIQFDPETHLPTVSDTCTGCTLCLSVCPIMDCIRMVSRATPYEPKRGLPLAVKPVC
The conditions noted are these: rats; spleen, intestinal mucosa, lung; cited from earlier work.

For series [6], the system named is cancer patients. Briefly: Clinical trial: 5 mg eniluracil followed 12-24 hours later by 5-FU, neurotoxicity. The conditions noted are these: then 30-160 mg 5-FU 12-24 hours later, 41 patients. Type of series: in vivo, human. As for the experimental part:
Therefore, a clinical trial was initiated wherein cancer patients were administered a 5 mg dose of eniluracil followed by 5-FU at a 30-160 mg dose 12-24 hours later. Unexpectedly, the majority of the 41 patients undergoing this treatment experienced some form of mild to severe neurotoxicity, with the main neurological symptoms being ataxia (an unsteady gait), neuropathy, confusion, dizziness, and slurred speech.
Based on this important finding, a clinical trial was initiated wherein cancer patients were administered a 5 mg dose of eniluracil, which was believed to be sufficient to systemically eliminate DPD activity in the patients. 5-FU was then administered 12-24 hours later at a dose of 30-160 mg. Unexpectedly, however, the majority of the 41 patients undergoing this treatment experienced some form of mild to severe neurotoxicity, with the main neurological symptoms being ataxia (an unsteady gait), neuropathy, confusion, dizziness, and slurred speech.
A clinical trial was initiated based on the important mechanistic findings described in WO 2006/060697. More specifically, cancer patients were administered a 5 mg dose of eniluracil and 12-24 hours thereafter were administered a 30-160 mg dose of 5-FU. […]

In series [7] the test system is patients with colorectal cancer. To be noted: cited from earlier work.
Series [8] has as its system tumor. The conditions noted are these: excess eniluracil present at the time 5-FU is administered; cited from earlier work.
Series [9] concerns the target T2, DPD (Homo sapiens, UniProt Q12882).
T2 construct: eliminated greater than 90% of DPD in peripheral blood cells for prolonged periods; from tissue; host or cells: peripheral blood cells of cancer patients
T2 sequence (Q12882 4-1025): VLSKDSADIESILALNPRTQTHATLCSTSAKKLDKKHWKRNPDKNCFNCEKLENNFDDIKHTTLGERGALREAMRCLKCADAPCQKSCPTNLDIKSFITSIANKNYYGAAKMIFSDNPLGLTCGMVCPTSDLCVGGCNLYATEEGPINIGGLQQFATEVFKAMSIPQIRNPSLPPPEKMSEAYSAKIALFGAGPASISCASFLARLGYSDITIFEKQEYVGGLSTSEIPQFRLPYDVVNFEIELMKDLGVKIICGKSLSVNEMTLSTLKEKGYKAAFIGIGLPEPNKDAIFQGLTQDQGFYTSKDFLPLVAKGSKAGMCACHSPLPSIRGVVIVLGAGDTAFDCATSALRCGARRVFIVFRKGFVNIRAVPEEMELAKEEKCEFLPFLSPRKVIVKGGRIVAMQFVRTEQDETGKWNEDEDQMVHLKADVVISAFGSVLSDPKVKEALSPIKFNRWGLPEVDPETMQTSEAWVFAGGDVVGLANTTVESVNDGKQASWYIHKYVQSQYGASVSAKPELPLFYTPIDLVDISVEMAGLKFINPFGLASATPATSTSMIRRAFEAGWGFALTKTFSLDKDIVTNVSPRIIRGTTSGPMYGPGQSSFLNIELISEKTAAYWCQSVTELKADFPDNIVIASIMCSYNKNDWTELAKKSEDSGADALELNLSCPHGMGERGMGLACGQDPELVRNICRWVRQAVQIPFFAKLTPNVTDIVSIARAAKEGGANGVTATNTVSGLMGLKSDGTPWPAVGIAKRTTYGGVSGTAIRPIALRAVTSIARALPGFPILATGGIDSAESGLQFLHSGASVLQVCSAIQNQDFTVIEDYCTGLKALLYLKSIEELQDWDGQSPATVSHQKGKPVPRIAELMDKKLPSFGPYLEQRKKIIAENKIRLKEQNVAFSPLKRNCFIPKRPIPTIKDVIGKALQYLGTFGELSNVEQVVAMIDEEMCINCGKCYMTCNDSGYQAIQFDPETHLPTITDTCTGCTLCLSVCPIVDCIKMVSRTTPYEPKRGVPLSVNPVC
To be noted: eniluracil 0.74 mg/m^2 (about 1 mg total), for prolonged periods; cited from earlier work.

The conditions of series [10]: humans; cited from earlier work.
Series [11] is described as follows: Calculated amount of eniluracil remaining in the body after 10.5 hours. Details: species or system human. To be noted: approximately three elimination half-lives. As for the experimental part:
The amounts of eniluracil shown in Table 1 below may be used achieve doses in the 16-20 mg/m^2 range. The calculated amount of eniluracil remaining in the body after 10.5 hours (approximately three elimination half-lives) is also presented. Thus, if the weekly and the 5-day dosing schedules employ doses of 5-FU ranging between about 15-50 mg/m^2, the ratio of eniluracil to 5-FU will always be less than about 1:6 when 5-FU is administered. For example, when the commonly used 25 mg/m^2 dose of 5-FU is administered 10.5 hours after eniluracil, the ratio of eniluracil to 5-FU will be about 1:10 or less.

The next series has as its system patients. The conditions noted are these: 20 mg eniluracil before 5-FU; 17 patients; cited from earlier work.
Series [12] has as its target T2, DPD. The conditions noted are these: the two patients with neurotoxicity, 20 mg eniluracil (9.5 and 8.0 mg/m^2); cited from earlier work.
The next series concerns tumors. The conditions noted are these: eniluracil with 5-FU, laboratory animals bearing tumors; cited from earlier work.

For the molecule `O=c1[nH]cc(F)c(=O)[nH]1` [5-FU, 5-Fluorouracil], the neurotoxicity entry in the series on dogs (intravenous 5-FU alone, only low blood levels of 5-FU) is “induced seizures, muscle tremors, and ataxia”. Also, the “elimination half-life of 5-FU” value in series [1] (after one dose of eniluracil) is 3.5 h; in [1] (without eniluracil) it was “about 10 minutes”. Also, the “half-life of 5-FU” value in series [1] (eniluracil 3.7 mg/m^2) is 4.5 to 6.5 h. In addition, the 5-FU elimination half-life in [1] (with eniluracil) is 4.5 to 6.5 h; in [1] (without eniluracil), 0.167 to 0.333 h.
Consider `NCC(F)C(=O)O` (stereo not drawn) [F-Bal, α-fluoro-β-alanine], for which, in series [2], the neurotoxicity entry was “can cause neurotoxicity”.
As for `Nc1nc2c(c(=O)[nH]1)N(C=O)C(CNc1ccc(C(=O)N[C@@H](CCC(=O)O)C(=O)O)cc1)CN2` (stereo partly shown) [Leucovorin], the “antitumor efficacy of eniluracil and 5-FU” value in the series on tumor [3] is given as “improve the antitumor efficacy”.
As for `C#Cc1c[nH]c(=O)[nH]c1=O` [eniluracil, 5-ethynyluracil], in the series on dogs (dogs pretreated with eniluracil, high blood levels of 5-FU), the neurotoxicity entry is “without any neurotoxicity”. Moreover, the toxicity entry in the series on cancer patients [4] (Phase I clinical trials in cancer patients) is recorded as “without causing toxicity”. The safety entry in the series on cancer patients [4] (doses up to 50 mg per day for seven days) is “safe”. In addition, the “dose required to inactivate 50% of DPD in brain relative to liver and other non-nervous tissues” value on DPD [5] was “approximately six-fold”. Moreover, the “patients experiencing some form of mild to severe neurotoxicity” value in the series on cancer patients [6] is recorded as “majority”. Moreover, the “antitumor benefit versus standard regimen of 5-FU/leucovorin” value in series [7] (10 mg/m^2 eniluracil and 1 mg/m^2 5-FU every 12 hr for 28 days, North American trial) is listed as “less antitumor benefit”. Besides, the “total incidence of severe neurotoxicity” value in series [7] (eniluracil about 11.5 mg/m^2 every 12 hours) is 6%. The “antitumor activity of 5-FU” value in the series with tumor [8] is recorded as “significantly diminished”. For the same molecule, the “DPD eliminated in peripheral blood cells” value on DPD [9] is “greater than 90%”. The “elimination half-life for eniluracil” value in series [10] is on record as “about 3.5 hours”. Besides, the “Estimated Amount of Eniluracil remaining 10.5 hr after dosing” value in series [11] (eniluracil dose 25 mg) is 3.1 mg; in series [11] (eniluracil dose 30 mg) it was 3.8 mg; in series [11] (eniluracil dose 40 mg) it was 5.0 mg; in series [11] (eniluracil dose 50 mg) it was 6.3 mg. Also, the incidence of neurotoxicity with patients is reported as 12%. Also, at DPD [12], the “DPD in peripheral blood cells” value is “completely inactivated”. Moreover, in the series on tumors, the “antitumor efficacy of 5-FU” value is listed as “significantly improved”.
